Among the test systems are HT29 colon; HCT-15 colon; HOP-92 NSCLC; MDA-MB-231 breast; NCI-H522 lung; T-47D breast; EKVX NSCLC; OVCAR-3 ovarian; CCRF-CEM leukemia; 786-0 renal.
What all share (test): NCI anticancer screen, dose series, 48 h

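Growth conditions: 96-well plates. Treatment: test compound, 48 hours, 5 concentrations. Analysis: linear interpolation between bracketing concentrations; unreached endpoints set to highest concentration. The concentration for 50% growth inhibition is given as GI50. TGI: total growth inhibition.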

Consider six compounds from PubChem BioAssay (NCI).

As to `O=C1/C(=C/C(Cl)=C/c2ccccc2)SC(=S)N1CCc1ccc(O)cc1`, the GI50 with HT29 colon is 2110 nM; with HCT-15 colon, 2050 nM; in the assay on HOP-92 NSCLC, 3180 nM; with MDA-MB-231 breast, 3820 nM; in the assay with NCI-H522 lung, 1420 nM; in the assay on T-47D breast, 2020 nM. In addition, the GI50 is 1970 nM in the assay with EKVX NSCLC, 1910 nM in the assay with OVCAR-3 ovarian, 441 nM in the assay on CCRF-CEM leukemia and 2190 nM in the assay with 786-0 renal. In addition, the TGI with HT29 colon is 5570 nM; in the assay with HCT-15 colon, 11200 nM; in the assay on HOP-92 NSCLC it was 21600 nM; with MDA-MB-231 breast, 34300 nM; in the assay on NCI-H522 lung, 4780 nM; in the assay on T-47D breast it was 5610 nM. Also, the TGI was 4140 nM in the assay with EKVX NSCLC, 4340 nM in the assay on OVCAR-3 ovarian, more than 100000 nM in the assay on CCRF-CEM leukemia and 4920 nM with 786-0 renal.

Regarding `O=C(Nc1ccc(Br)c(Cl)c1)c1cc(F)ccc1O`, the GI50 with HT29 colon was 1710 nM; in the assay on HCT-15 colon it was 888 nM; in the assay on HOP-92 NSCLC, 121 nM; in the assay on MDA-MB-231 breast, 760 nM; in the assay on NCI-H522 lung, 238 nM; in the assay on T-47D breast it was 638 nM. Further, the GI50 is 770 nM in the assay with EKVX NSCLC, 481 nM with OVCAR-3 ovarian, 1430 nM in the assay with CCRF-CEM leukemia and 1060 nM in the assay with 786-0 renal. Besides, the TGI in the assay with HT29 colon was found to be 8350 nM; in the assay on HCT-15 colon it was 6660 nM; in the assay on HOP-92 NSCLC it was 755 nM; in the assay with MDA-MB-231 breast, 2610 nM; with NCI-H522 lung, 2930 nM; in the assay with T-47D breast, 13400 nM. For the same compound, the TGI with EKVX NSCLC was 10000 nM; with OVCAR-3 ovarian, more than 50000 nM; in the assay on CCRF-CEM leukemia, more than 15100 nM; in the assay with 786-0 renal, 5730 nM.

On to `Clc1ccc(CO/N=C(\Cn2ccnc2)c2ccc(Cl)cc2Cl)c(Cl)c1`, for which the GI50 in the assay with HT29 colon is 1650 nM; in the assay with HCT-15 colon, 1570 nM; in the assay with HOP-92 NSCLC, 1150 nM; in the assay with MDA-MB-231 breast it was 1320 nM; with NCI-H522 lung, 1520 nM; in the assay on T-47D breast, 1770 nM. In addition, the GI50 is 1430 nM in the assay on EKVX NSCLC, 1660 nM in the assay on OVCAR-3 ovarian, 1870 nM with CCRF-CEM leukemia and 1660 nM in the assay on 786-0 renal. Further, the TGI in the assay with HT29 colon is 3330 nM; in the assay on HCT-15 colon, 3210 nM; with HOP-92 NSCLC it was 2530 nM; in the assay on MDA-MB-231 breast, 2750 nM; in the assay on NCI-H522 lung, 3280 nM; with T-47D breast, 3360 nM. Further, the TGI with EKVX NSCLC turned out to be 2830 nM; with OVCAR-3 ovarian, 3120 nM; in the assay with CCRF-CEM leukemia, 4620 nM; in the assay with 786-0 renal it was 3140 nM.

Consider `Cc1cc(C)nc(SC2=C(Nc3cccc(Cl)c3)C(=O)N(Cc3ccccc3)C2=O)n1`, for which the GI50 with HT29 colon, in the assay on HCT-15 colon, in the assay on HOP-92 NSCLC, in the assay with MDA-MB-231 breast, with NCI-H522 lung and in the assay with T-47D breast was more than 170000 nM throughout. Further, the GI50 in the assay with EKVX NSCLC, in the assay on OVCAR-3 ovarian, in the assay on CCRF-CEM leukemia and with 786-0 renal was more than 170000 nM each time. In addition, the TGI with HT29 colon, in the assay with HCT-15 colon, with HOP-92 NSCLC, with MDA-MB-231 breast, with NCI-H522 lung and in the assay with T-47D breast was more than 170000 nM in each case. Also, the TGI in the assay on EKVX NSCLC, with OVCAR-3 ovarian, in the assay with CCRF-CEM leukemia and in the assay on 786-0 renal was more than 170000 nM each time.

As to `[N-]=[N+]=CC(=O)OCC(N)C(=O)O` (stereo not drawn), the GI50 is 277 nM in the assay on HT29 colon; 631 nM in the assay on HCT-15 colon; more than 100000 nM with HOP-92 NSCLC; 763 nM in the assay on MDA-MB-231 breast; 512 nM in the assay with NCI-H522 lung; 12400 nM in the assay with T-47D breast. Further, the GI50 is 3130 nM in the assay on EKVX NSCLC, 3730 nM in the assay on OVCAR-3 ovarian, 623 nM in the assay on CCRF-CEM leukemia and 856 nM with 786-0 renal. Further, the TGI in the assay on HT29 colon, in the assay with HCT-15 colon, in the assay on HOP-92 NSCLC, with MDA-MB-231 breast, in the assay on NCI-H522 lung and in the assay with T-47D breast was more than 100000 nM each time. Moreover, the TGI in the assay on EKVX NSCLC, in the assay with OVCAR-3 ovarian, with CCRF-CEM leukemia and in the assay on 786-0 renal was more than 100000 nM in each case.

As for `CCNc1nc(N2CC(=O)Nc3cc(OC)ccc32)c2ccccc2n1`, the GI50 was 0.334 nM in the assay on HT29 colon; 0.609 nM in the assay with HCT-15 colon; 1260 nM with HOP-92 NSCLC; 0.553 nM in the assay on MDA-MB-231 breast; 0.51 nM in the assay with NCI-H522 lung; 253 nM with T-47D breast. The GI50 in the assay on OVCAR-3 ovarian was 0.352 nM; in the assay with CCRF-CEM leukemia it was 0.404 nM; with 786-0 renal it was 9.94 nM. Moreover, the TGI is 10 nM with HT29 colon; more than 100000 nM in the assay on HCT-15 colon; 9690 nM with HOP-92 NSCLC; more than 100000 nM in the assay on MDA-MB-231 breast; 7.83 nM in the assay on NCI-H522 lung; 52900 nM with T-47D breast. For the same compound, the TGI in the assay with EKVX NSCLC, with CCRF-CEM leukemia and in the assay on 786-0 renal was more than 100000 nM each time.
